Experimental data: publication PMC6173406, “Design and evaluation of selective butyrylcholinesterase inhibitors based on Cinchona alkaloid scaffold” (PLoS ONE, 2018)
Where two headings read alike, the source gives them in different places.

Legend:
[1] = biological target: T1, human AChE (Homo sapiens, UniProt P22303); experiment: Reversible inhibition of human AChE, Ellman method with ATCh, Hunter-Downs analysis; format: biochemical; set-up: key to AChE type of inhibition: c, n and m stands for competitive, noncompetitive and mixed type of inhibition; c, n and m stands for competitive, noncompetitive and mixed type of inhibition; c, n and m stands for competitive, noncompetitive and mixed type of inhibition; settings: for Ki: enzyme-inhibitor dissociation constant ± standard error, ATCh 0.050–0.50 mM, pH 7.4, 25 °C; for AChE Ks: enzyme-substrate (ATCh) dissociation constant derived from the inhibition kinetics with the compound; for AChE type of inhibition: symbol in brackets after Ki
T1 construct: gift of Dr. F. Nachon (Département de Toxicologie, Armed Forces Biomedical Research Institute, France)
Experimental: (§1) Purified human BChE and recombinant human AChE were kindly provided by Dr. F. Nachon (Département de Toxicologie, Armed Forces Biomedical Research Institute, France). The concentration of enzymes (BChE: 5.6 μM; AChE: 0.20 μM) was determined as described previously. The concentrated stocks of enzymes were diluted in a phosphate sodium buffer 0.1 M (pH 7.4) containing 0.1% BSA.
(§2) Enzyme activities were measured spectrophotometrically by Ellman method at 412 nm using 0.30 mM DTNB as thiol reagent and ATCh (0.050–0.50 mM) as substrate in 0.1 M phosphate buffer, pH 7.4 [29, 30]. For the inhibition, the reaction mixture also contained cinchonidines or cinchonines (final concentrations 0.020–200 μM, depending on compound). In the case of compounds CD-(pCl) and CN-(pCl), the final content of DMSO was the same in enzyme activity measurement and in inhibition measurements, up to 0.32%. No side interactions of tested compounds with ATCh or DTNB were detected. Measurements were done at 25 °C on a Tecan Infinite M200Pro plate reader (Austria).
(§3) The reversible inhibition of BChE and AChE by cinchonines and cinchonidines was measured by determining the decrease of enzyme activity towards ATCh (0.050–0.50 mM) in their presence. The activities of the enzymes were measured at different substrate concentrations ([S]) in the absence (v0) and presence (vi) of given cinchonines and cinchonidines concentration ([I]) selected to inhibit the enzymes for 20–80%. At least three concentrations of inhibitors for each substrate concentration were used in at least two experiments. The apparent dissociation inhibition constant (Ki,app) was calculated using the Hunter-Downs equation and the linear regression analysis: Ki,app=vi/v0−vi⋅[I]=K(I)+K(I)/K(S)⋅[S] where y-intercept determines the enzyme-inhibitor dissociation constants (K(I)), while x-intercept determines the enzyme-substrate dissociation constant, K(S). The equation was used with the assumption that the substrate, due to relatively low substrate concentrations used in experiments, binds only to the catalytic site, while inhibitor can bind to both sites catalytic and peripheral site. In other words, if the inhibitor competes with substrate for binding to the catalytic site of the enzyme, Ki,app proportionally depend on the substrate concentration. […] The curve means that the inhibitor binds not only to the catalytic or peripheral site but also to intermediates of Michaelis type of the enzyme-substrate complex.

[2] = biological target: T2, human BChE (Homo sapiens, UniProt P06276); experiment: Reversible inhibition of human BChE, Ellman method with ATCh, Hunter-Downs analysis; format: biochemical; set-up: key to BChE type of inhibition: c, n and m stands for competitive, noncompetitive and mixed type of inhibition; c, n and m stands for competitive, noncompetitive and mixed type of inhibition; c, n and m stands for competitive, noncompetitive and mixed type of inhibition; settings: for BChE Ks: enzyme-substrate (ATCh) dissociation constant derived from the inhibition kinetics with the compound; for BChE inhibition potency compared to CD-Met: fold more potent than CD-Met; for Ki(AChE)/ Ki (BChE): inhibition selectivity, ratio of Ki constants for AChE and BChE; for BChE type of inhibition: symbol in brackets after Ki; for BChE affinity lower compared to CD-(pBr): fold lower affinity than CD-(pBr)
T2 construct: gift of Dr. F. Nachon (Département de Toxicologie, Armed Forces Biomedical Research Institute, France)
Experimental: as §1, §2, §3

[3] = enzyme-inhibitor dissociation constant ± standard error, ATCh 0.050–0.50 mM, pH 7.4, 25 °C
[4] = ratio of Ki of cinchonine to Ki of the pseudo-enantiomeric cinchonidine

T1 sequence (P22303 32-614): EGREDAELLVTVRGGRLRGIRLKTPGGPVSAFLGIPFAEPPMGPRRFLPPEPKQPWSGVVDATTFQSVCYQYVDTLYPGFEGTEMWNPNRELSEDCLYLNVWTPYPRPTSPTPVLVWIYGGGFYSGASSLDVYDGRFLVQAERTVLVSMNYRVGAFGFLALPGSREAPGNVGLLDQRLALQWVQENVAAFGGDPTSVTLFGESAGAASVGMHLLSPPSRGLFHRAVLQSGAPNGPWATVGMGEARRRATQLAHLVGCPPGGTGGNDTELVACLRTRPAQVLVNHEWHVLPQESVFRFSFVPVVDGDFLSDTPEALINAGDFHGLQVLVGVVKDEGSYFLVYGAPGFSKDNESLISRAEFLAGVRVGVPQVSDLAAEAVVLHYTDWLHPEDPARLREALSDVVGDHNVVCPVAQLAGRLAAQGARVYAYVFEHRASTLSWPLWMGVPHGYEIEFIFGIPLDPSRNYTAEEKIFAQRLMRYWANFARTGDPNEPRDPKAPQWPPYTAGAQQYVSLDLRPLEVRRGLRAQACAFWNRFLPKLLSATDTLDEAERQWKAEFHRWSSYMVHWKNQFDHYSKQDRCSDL
T2 sequence (P06276 29-602): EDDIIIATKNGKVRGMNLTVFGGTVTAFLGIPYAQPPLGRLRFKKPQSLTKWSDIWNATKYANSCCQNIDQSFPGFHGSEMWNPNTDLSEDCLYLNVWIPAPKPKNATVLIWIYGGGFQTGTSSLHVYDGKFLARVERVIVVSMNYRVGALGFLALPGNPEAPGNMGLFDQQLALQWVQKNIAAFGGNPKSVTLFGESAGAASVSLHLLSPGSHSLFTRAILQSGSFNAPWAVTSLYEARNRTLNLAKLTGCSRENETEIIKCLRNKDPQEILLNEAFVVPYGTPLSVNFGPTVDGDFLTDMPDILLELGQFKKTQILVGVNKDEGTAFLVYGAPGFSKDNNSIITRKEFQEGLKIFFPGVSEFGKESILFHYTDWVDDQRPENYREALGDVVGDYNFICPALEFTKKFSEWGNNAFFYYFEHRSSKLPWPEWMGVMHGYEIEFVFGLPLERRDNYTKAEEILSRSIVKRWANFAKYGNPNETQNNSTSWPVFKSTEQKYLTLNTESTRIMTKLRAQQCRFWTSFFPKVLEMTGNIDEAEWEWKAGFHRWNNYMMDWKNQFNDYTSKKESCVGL

C=CC1C[N+]2(Cc3ccc(Br)cc3)CCC1CC2C(O)c1ccnc2ccccc12 (centres unmarked) [CD-(pBr), N-para-bromobenzyl cinchonidinium bromide]
Ki [1]: 19 ± 1 µM | AChE Ks [1]: 2.2 ± 0.524 mM | AChE type of inhibition [1]: m | Ki [2]: ≤ 0.1 µM | Ki [2, 3]: 0.038 ± 0.005 µM | BChE Ks [2]: 0.34 ± 0.07 mM | BChE inhibition potency compared to CD-Met [2]: 700 times | Ki(AChE)/ Ki (BChE) [2]: 510 | BChE binding preference para- over meta-positioned substituent ([2]; para compound compared to meta compound): 16 times | BChE stereoselectivity Ki(CN/CD) [2, 4]: 92 | BChE type of inhibition [2]: c

C=CC1C[N+]2(Cc3cccc([N+](=O)[O-])c3)CCC1CC2C(O)c1ccnc2ccccc12 (centres unmarked) [CN-(mNO2)]
Ki [1]: 8.6 ± 0.5 µM | AChE Ks [1]: 0.72 ± 0.10 mM | AChE type of inhibition [1]: m | Ki [2, 3]: 4.2 ± 0.3 µM | BChE Ks [2]: 0.35 ± 0.04 mM | Ki(AChE)/ Ki (BChE) [2]: 2.1 | BChE type of inhibition [2]: m

C=CC1C[N+]2(Cc3ccc(Br)cc3)CCC1CC2C(O)c1ccnc2ccccc12 (centres unmarked) [CN-(pBr)]
Ki [1]: 31 ± 1 µM | AChE Ks [1]: 2.7 ± 0.9 mM | AChE type of inhibition [1]: m | Ki [2, 3]: 3.5 ± 0.3 µM | BChE Ks [2]: 0.44 ± 0.07 mM | Ki(AChE)/ Ki (BChE) [2]: 8.8 | BChE type of inhibition [2]: c

C=C[C@H]1CN2CC[C@H]1C[C@H]2[C@H](O)c1ccnc2ccccc12 [CD, cinchonidine, reference compound]
AChE affinity lower than for the highest-affinity compounds ([1]; compared to CD-(mNO2) and CD-(mCH3)): about 160 times | Ki [1]: > 400 µM | Ki [2, 3]: 28 ± 4 µM | BChE Ks [2]: 0.25 ± 0.05 mM | Ki(AChE)/ Ki (BChE) [2]: ~14 | BChE type of inhibition [2]: c

C=CC1C[N+]2(Cc3ccc(Cl)cc3)CCC1CC2C(O)c1ccnc2ccccc12 (centres unmarked) [CD-(pCl)]
Ki [1]: 37 ± 4 µM | AChE type of inhibition [1]: n | Ki [2]: ≤ 0.1 µM | Ki [2, 3]: 0.1 ± 0.01 µM | BChE Ks [2]: 0.42 ± 0.05 mM | Ki(AChE)/ Ki (BChE) [2]: 350 | BChE type of inhibition [2]: c

C=CC1C[N+]2(Cc3cccc(C)c3)CCC1CC2C(O)c1ccnc2ccccc12 (centres unmarked) [CD-(mCH3), N-(3-methylbenzyl) cinchonidinium bromide]
Ki [1]: 3 ± 0.3 µM | AChE Ks [1]: 0.63 ± 0.14 mM | AChE stereoselectivity Ki(CN/CD) [1, 4]: 16 | AChE type of inhibition [1]: m | Ki [2]: ≤ 0.1 µM | Ki [2, 3]: 0.077 ± 0.006 µM | BChE Ks [2]: 0.52 ± 0.08 mM | Ki(AChE)/ Ki (BChE) [2]: 39 | BChE type of inhibition [2]: m

C=CC1C[N+]2(Cc3cccc(Cl)c3)CCC1CC2C(O)c1ccnc2ccccc12 (centres unmarked) [CN-(mCl)]
Ki [1]: 56 ± 8 µM | AChE Ks [1]: 0.19 ± 0.03 mM | AChE type of inhibition [1]: c | Ki [2, 3]: 5.4 ± 0.5 µM | BChE Ks [2]: 0.63 ± 0.12 mM | Ki(AChE)/ Ki (BChE) [2]: 10 | BChE type of inhibition [2]: m

C=CC1C[N+]2(C)CCC1CC2C(O)c1ccnc2ccccc12 (centres unmarked) [CN-Met]
Ki [1]: 42 ± 4 µM | AChE Ks [1]: 0.32 ± 0.05 mM | AChE type of inhibition [1]: c | Ki [2, 3]: 29 ± 4 µM | BChE Ks [2]: 0.35 ± 0.07 mM | BChE affinity lower compared to CD-(pBr) [2]: approximately 730 times | BChE type of inhibition [2]: c

C=CC1C[N+]2(Cc3cccc(Br)c3)CCC1CC2C(O)c1ccnc2ccccc12 (centres unmarked) [CD-(mBr), N-(3-bromobenzyl) cinchonidinium bromide]
Ki [1]: 20 ± 1 µM | AChE Ks [1]: 0.91 ± 0.08 mM | AChE type of inhibition [1]: m | Ki [2, 3]: 0.6 ± 0.03 µM | BChE Ks [2]: 0.50 ± 0.05 mM | BChE inhibition potency compared to CD-Met [2]: 44 times | Ki(AChE)/ Ki (BChE) [2]: 33 | BChE type of inhibition [2]: m

C=CC1C[N+]2(C)CCC1CC2C(O)c1ccnc2ccccc12 (centres unmarked) [CD-Met]
Ki [1]: 67 ± 6 µM | AChE Ks [1]: 0.70 ± 0.17 mM | AChE type of inhibition [1]: c | Ki [2, 3]: 26 ± 4 µM | BChE Ks [2]: 0.70 ± 0.22 mM | BChE affinity lower compared to CD-(pBr) [2]: approximately 730 times | BChE type of inhibition [2]: c

C=CC1C[N+]2(Cc3cccc(C)c3)CCC1CC2C(O)c1ccnc2ccccc12 (centres unmarked) [CN-(mCH3), N-(3-methylbenzyl) cinchoninium bromide]
Ki [1]: 49 ± 2 µM | AChE Ks [1]: 0.66 ± 0.06 mM | AChE type of inhibition [1]: m | Ki [2, 3]: 4.6 ± 0.4 µM | BChE Ks [2]: 0.53 ± 0.00 mM | Ki(AChE)/ Ki (BChE) [2]: 11 | BChE type of inhibition [2]: m
